# Experimental data taken from patent publication US20250172566A1, “SACCHARIDE SENSING SYSTEMS” (CARBOMETRICS LIMITED, priority 2022, published 2025).
# Test: Fluorescent solution phase glucose responsive assay (pH 7.4, 298 K)
# Details: 20 mM D-glucose; GBM22 5 μM; FIM 1 μM; medium A; Ex 470 nm, Emmax 590 nm
# Method: Fluorescence spectroscopy was performed on either a HORIBA Duetta or BMG Labtech CLARIOstar plus plate reader. Emission spectra were obtained using the appropriate excitation wavelength and at a temperature of either 298 or 310 K and at pH 7.4 unless otherwise stated. Data collection and analysis were performed using EzSpec software by HORIBA or CLARIOstar MARS software by BMG Labtech. Further analysis and processing were performed in Microsoft Excel.
# A solution of GBM and FIM at the required concentrations were created in the appropriate media. The emission spectrum of the assay was then acquired by exciting at the designated excitation wavelength to obtain the baseline emission intensity for the assay. Aliquots of 2 M D-glucose (in the same media) were then added to give the required final glucose concentrations (e.g. 15 μL of 2 M D-glucose in 3 mL gives a final D-glucose concentration of 10 mM) and the assay allowed to reach equilibration. The emission spectra were collected after each addition of D-glucose and compared to the original baseline emission, monitoring at the typical emission maximum (Emmax), and the percentage increase or decrease recorded. Emission spectra acquired on either a Horiba Duetta fluorometer or Clariostar plus plate reader.
# The glucose responsive fluorescence emission for different combinations of glucose binding molecules (GBM) and fluorescent inhibitor molecules (FIM) at various concentrations and in various media was tested as described above. All results obtained at pH 7.4 and 298 K unless otherwise stated.
# All results obtained at pH 7.4 and 298 K unless otherwise stated.
# Table 4 provides the composition of the assay media used as the code assigned to each media as used in Tables 1 to 3.
compound,measurement,value
Cc1ccc2n1[B-](F)(F)[N+]1=C(/C=C/c3ccc(C(=O)O)cc3)C=CC1=C2c1ccccc1OCc1cn(CCOCCOCCOCCO[C@@H]2O[C@H](CO)[C@@H](O)[C@H](O)[C@H]2O)nn1 [FIM31],Change in Emmax for FIM at a particular D-glucose concentration,90%
